Measured values from patent US20230050653A1, “ROCK INHIBITOR AND PREPARATION METHOD THEREFOR AND USE THEREOF” (WUHAN LL SCIENCE AND TECHNOLOGY DEVELOPMENT CO., LTD., priority 2019, published 2023).

What was measured:
ROCK1 kinase = biological target: T1, ROCK1 kinase (Homo sapiens, UniProt Q13464); test: In vitro evaluation of ROCK1 kinase selectivity (HTRF KinEASE-STK time-resolved fluorometric assay); format: biochemical
T1 construct: purchased Invitrogen
Procedure: ROCK1 activity was detected using a 96-well (Cisbio) time-resolved fluorometric assay. The assay for ROCK1 was performed in the following assay buffer: 5 mM MgCl2 (Sigma), 1 mM DTT (Sigma) and 1× kinase buffer. The kinase buffer was used for dilution. 7.5 μL of ROCK1 kinase (Invitrogen) was added to a 96-well microplate to reach a final concentration of 0.4 ng/μL, and then 0.25 μL of test compound (DMSO content: 1%) was added. The mixture was incubated at room temperature for 0.5 h. To start the reaction, the kinase buffer was also used to mix ATP (Aladdin) and the substrate STK-substrate 2-biotin. 7.5 μL of the mixed solution was added to the microplate to reach final concentrations of 3.53 μM and 1 μM. The resulting mixture was incubated for 2 h at room temperature. […] was mixed with STK antibody-Cryptate, and then an appropriate volume of the mixture was mixed with an equal volume of streptavidin-XL665. 10 μL of the resulting mixture was added to stop the reaction. After further incubation for about 1 h, the microplate was read on a Molecular Devices SpectraMax i3x multifunctional microplate reader. The kinase buffer, the STK-substrate 2-biotin, the detection buffer, the STK antibody-Cryptate, and the streptavidin-XL665 were all from HTRF KinEASE-STK kit (Cisbio, 1000 tests, 61[…]).

ROCK2 kinase = biological target: T2, ROCK2 kinase (Homo sapiens, UniProt O75116); test: In vitro evaluation of ROCK2 kinase activity (HTRF KinEASE-STK time-resolved fluorometric assay); format: biochemical
T2 construct: purchased Invitrogen PV3759
T2 sequence (O75116 whole entry): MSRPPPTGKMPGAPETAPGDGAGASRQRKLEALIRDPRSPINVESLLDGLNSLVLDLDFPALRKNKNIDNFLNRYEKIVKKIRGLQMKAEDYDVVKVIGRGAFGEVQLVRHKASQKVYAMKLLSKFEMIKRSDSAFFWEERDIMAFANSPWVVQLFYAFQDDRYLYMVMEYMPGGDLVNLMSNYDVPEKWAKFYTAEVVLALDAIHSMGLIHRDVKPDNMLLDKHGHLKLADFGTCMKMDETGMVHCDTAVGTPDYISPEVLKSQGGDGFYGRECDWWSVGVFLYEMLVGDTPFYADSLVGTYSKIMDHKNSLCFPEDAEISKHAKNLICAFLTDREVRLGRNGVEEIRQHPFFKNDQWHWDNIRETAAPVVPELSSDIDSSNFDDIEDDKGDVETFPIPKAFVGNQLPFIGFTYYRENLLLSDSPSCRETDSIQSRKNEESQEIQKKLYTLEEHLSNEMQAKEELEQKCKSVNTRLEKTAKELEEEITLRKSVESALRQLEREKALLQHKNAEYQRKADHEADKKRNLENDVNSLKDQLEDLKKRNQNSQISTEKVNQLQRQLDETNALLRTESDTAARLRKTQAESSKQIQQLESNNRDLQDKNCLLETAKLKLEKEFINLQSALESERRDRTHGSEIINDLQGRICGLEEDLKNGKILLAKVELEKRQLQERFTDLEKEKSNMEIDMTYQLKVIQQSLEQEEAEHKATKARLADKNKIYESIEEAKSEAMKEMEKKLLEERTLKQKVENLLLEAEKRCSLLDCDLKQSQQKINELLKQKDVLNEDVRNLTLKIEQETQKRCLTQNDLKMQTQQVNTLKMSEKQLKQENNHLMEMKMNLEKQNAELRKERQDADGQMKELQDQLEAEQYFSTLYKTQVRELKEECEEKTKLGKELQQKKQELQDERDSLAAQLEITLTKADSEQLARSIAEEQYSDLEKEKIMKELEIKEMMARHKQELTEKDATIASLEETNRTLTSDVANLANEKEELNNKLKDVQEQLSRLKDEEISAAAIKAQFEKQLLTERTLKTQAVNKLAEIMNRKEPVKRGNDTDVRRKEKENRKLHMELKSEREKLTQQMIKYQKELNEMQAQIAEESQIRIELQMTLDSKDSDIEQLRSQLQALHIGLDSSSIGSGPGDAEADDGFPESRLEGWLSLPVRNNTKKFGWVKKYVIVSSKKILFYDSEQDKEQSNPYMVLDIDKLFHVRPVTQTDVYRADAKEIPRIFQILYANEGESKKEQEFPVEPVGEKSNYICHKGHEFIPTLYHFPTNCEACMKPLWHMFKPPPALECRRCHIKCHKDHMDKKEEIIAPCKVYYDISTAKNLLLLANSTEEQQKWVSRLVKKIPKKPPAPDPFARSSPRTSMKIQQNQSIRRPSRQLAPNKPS
Procedure: ROCK2 activity screening. ROCK2 activity was detected using a 96-well (Cisbio) time-resolved fluorometric assay. The assay for ROCK2 was performed in the following assay buffer: 5 mM MgCl2 (Sigma), 1 mM DTT (Sigma) and 1× kinase buffer. The kinase buffer was used for dilution. 7.5 μL of ROCK2 kinase (Invitrogen, PV3759) was added to a 96-well microplate to reach a final concentration of 0.4 ng/μL, and then 0.25 μL of test compound (DMSO content: 1% (volume fraction)) was added. The mixture was incubated at room temperature for 0.5 h. To start the reaction, the kinase buffer was used to mix ATP (Aladdin) and the substrate STK-substrate 2-biotin. 7.5 μL of the mixed solution was added to the microplate to reach final concentrations of 6.739 μM and 1 μM. The resulting mixture was incubated for 2 h at room temperature. 5 mL of detection buffer was mixed with STK antibody-Cryptate, and then an appropriate volume of the mixture was mixed with an equal volume of streptavidin-XL665. 10 μL of the resulting mixture was added to the microplate to stop the reaction. After further incubation for about 1 h, the microplate was read on a Molecular Devices SpectraMax i3x multifunctional microplate reader. The kinase buffer, the STK-substrate 2-biotin, the detection buffer, the STK antibody-Cryptate, and the streptavidin-XL665 were all from HTRF KinEASE-STK kit (Cisbio, 1000 tests, 61[…]).

[1] = In vitro cytotoxicity assay in HepG2 cells, CCK-8 method; conditions: human
Procedure: In vitro cytotoxicity assay for the compounds disclosed herein was performed in HepG2 cells using the CCK-8 method. HepG2 cells (Beina Bio) in the logarithmic growth phase were collected, the concentration of cell suspension was adjusted, and then the cells were plated on a 96-well cell culture plate at 50,000 cells/well. The cells were then incubated overnight in a cell incubator (5%, 37° C.), and after 80-90% cell confluence was achieved, test compound at each concentration gradient or vehicle (DMSO) was added after medium change. The resulting mixture was incubated in the cell incubator (5%, 37° C.) for 48 h. After the treatment, the medium in the plate was discarded. The plate was washed twice with PBS, added with CCK-8 working solution (Beyotime) at 100 μL per well, and then incubated at 37° C. for 1.5 h in the dark. Absorbance at OD450 nm was measured for each well on a microplate reader, and CC50 value of each compound was analyzed and calculated.

[2] = In vivo pharmacokinetic study in mice; conditions: mouse, plasma
Description: In Vivo Pharmacokinetic Study of Compounds Disclosed Herein in Mice SPF-grade mice (SPF (Beijing) Biotechnology Co., Ltd.) were fasted overnight (without water deprivation) after adaptive feeding, and then received the compound of the present disclosure by intragastrical administration and bolus injection at tail vein. After administration, plasma of mice was collected at specific time points, and the concentration of the compound in the plasma was detected by LC-MS/MS (AB SCIEX Qtrap4500). The PK parameters of the compounds were statistically analyzed and calculated (WinNonlin V5.2, Pharsight) to show the pharmacokinetic properties of the compounds in mice.

T1 sequence (Q13464 whole entry): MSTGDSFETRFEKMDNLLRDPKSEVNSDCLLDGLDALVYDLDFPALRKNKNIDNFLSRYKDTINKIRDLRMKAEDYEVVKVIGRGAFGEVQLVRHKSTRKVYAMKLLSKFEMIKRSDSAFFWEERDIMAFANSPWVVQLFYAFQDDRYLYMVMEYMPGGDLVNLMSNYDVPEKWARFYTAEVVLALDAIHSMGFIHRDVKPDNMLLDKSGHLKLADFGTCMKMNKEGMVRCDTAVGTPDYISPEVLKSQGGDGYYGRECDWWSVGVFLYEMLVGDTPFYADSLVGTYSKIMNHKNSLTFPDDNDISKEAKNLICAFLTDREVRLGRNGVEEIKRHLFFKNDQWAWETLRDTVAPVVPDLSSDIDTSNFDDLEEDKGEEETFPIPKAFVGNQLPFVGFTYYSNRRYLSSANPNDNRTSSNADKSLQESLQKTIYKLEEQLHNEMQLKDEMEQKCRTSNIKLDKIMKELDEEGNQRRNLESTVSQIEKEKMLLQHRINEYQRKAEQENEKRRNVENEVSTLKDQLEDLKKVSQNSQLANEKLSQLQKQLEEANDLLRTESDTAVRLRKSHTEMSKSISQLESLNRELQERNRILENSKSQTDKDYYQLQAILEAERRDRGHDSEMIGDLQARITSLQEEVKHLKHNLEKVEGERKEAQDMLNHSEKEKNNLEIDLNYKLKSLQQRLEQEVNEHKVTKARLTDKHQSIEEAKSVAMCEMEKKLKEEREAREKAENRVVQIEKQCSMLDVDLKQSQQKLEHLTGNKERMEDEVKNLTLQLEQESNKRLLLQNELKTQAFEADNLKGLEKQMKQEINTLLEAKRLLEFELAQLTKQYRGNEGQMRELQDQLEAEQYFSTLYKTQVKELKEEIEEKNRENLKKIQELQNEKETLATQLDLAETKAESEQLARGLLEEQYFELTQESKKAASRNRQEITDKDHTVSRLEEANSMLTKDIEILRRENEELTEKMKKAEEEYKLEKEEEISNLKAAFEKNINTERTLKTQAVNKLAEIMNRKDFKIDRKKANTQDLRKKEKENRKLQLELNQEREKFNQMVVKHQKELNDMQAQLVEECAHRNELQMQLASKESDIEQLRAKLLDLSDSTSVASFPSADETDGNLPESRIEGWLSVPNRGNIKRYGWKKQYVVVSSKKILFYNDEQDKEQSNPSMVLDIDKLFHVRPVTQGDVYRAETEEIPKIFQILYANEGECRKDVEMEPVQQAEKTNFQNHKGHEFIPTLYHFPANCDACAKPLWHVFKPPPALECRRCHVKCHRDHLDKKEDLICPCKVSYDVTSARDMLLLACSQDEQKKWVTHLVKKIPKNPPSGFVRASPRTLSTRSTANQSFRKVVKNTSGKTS

Structure (SMILES)	IC50 (ROCK1 kinase)	IC50 (ROCK2 kinase)	also measured
COc1cc(F)cc(CNC(=O)N2CCOc3cc(-c4cn[nH]c4)ccc32)c1 [Compound T205, N-(3-fluoro-5-methoxybenzyl)-7-(1H-pyrazol-4-yl)-2H-benzo[b][1,4]oxazine-4(3H)-carboxamide]	50 to 500 nM	≤ 50 nM	CC50 at 48 h [1]: > 50000 nM
COc1cc(F)cc(CNC(=O)c2ncn3cc(-c4cn[nH]c4)ccc23)c1 [Compound T238, N-(3-fluoro-5-methoxybenzyl)-6-(1H-pyrazol-4-yl)imidazo[1,5-a]pyridine-1-carboxamide]	≤ 50 nM	≤ 50 nM	bioavailability ([2]; 3.4 mg/kg Po vs Iv): 84.6%; AUC(0-t) ([2]; Iv, 3.4 mg/kg): 10500 ng·h/mL; Cmax ([2]; Iv, 3.4 mg/kg): 4940 ng/mL; AUC(0-t) ([2]; Po, 3.4 mg/kg): 8880 ng·h/mL; Cmax ([2]; Po, 3.4 mg/kg): 2130 ng/mL
COc1cc(F)cc(CNC(=O)c2ccn3cc(-c4cn[nH]c4)ccc23)c1 [Compound T237]	≤ 50 nM	≤ 50 nM	
O=C(NCc1cc(F)cc(F)c1)N1CCc2cc(-c3cn[nH]c3)ccc21 [Compound T226]	50 to 500 nM	≤ 50 nM	
COc1cc(F)cc(CNC(=O)N2CCc3cc(-c4cn[nH]c4)cc(Cl)c32)c1 [Compound T221, 7-chloro-N-(3-fluoro-5-methoxybenzyl)-5-(1H-pyrazol-4-yl)indoline-1-carboxamide]	50 to 500 nM	50 to 500 nM	
COc1cc(F)cc(CN(C)C(=O)N2CCc3cc(-c4cn[nH]c4)ccc32)c1 [Compound T206, N-(3-fluoro-5-methoxybenzyl)-N-methyl-5-(1H-pyrazol-4-yl)indoline-1-carboxamide]	500 to 5000 nM	50 to 500 nM	
O=C(NCc1ccccc1)N1CCc2cc(-c3cn[nH]c3)ccc21 [Compound T207, N-benzyl-5-(1H-pyrazol-4-yl)indoline-1-carboxamide]	≤ 50 nM	≤ 50 nM	
COCCOc1cc(F)cc(CNC(=O)N2CCc3cc(-c4cn[nH]c4)ccc32)c1 [Compound T213]	≤ 50 nM	≤ 50 nM	
CN(C)CCN(Cc1ccccc1)C(=O)N1CCc2cc(-c3cn[nH]c3)ccc21 [Compound T244]	50 to 500 nM	50 to 500 nM	
CC(C)COc1cc(F)cc([C@@H](CO)NC(=O)N2CCc3cc(-c4cn[nH]c4)c(F)cc32)c1 [Compound T354, (S)-6-fluoro-N-(1-(3-fluoro-3-isobutoxyphenyl)-2-hydroxyethyl)-5-(1H-pyrazol-4-yl)indoline-1-carboxamide]	50 to 500 nM	50 to 500 nM	
COc1cc(F)cc(CNC(=O)N2CCc3c2cc(F)c(-c2cn[nH]c2)c3F)c1 [Compound T228, 4,6-difluoro-N-(3-fluoro-5-methoxybenzyl)-5-(1H-pyrazol-4-yl)indoline-1-carboxamide]	≤ 50 nM	≤ 50 nM	
COc1cc(F)cc(CNC(=O)N2CCCc3sc(-c4cn[nH]c4)nc32)c1 [Compound T230]	50 to 500 nM	50 to 500 nM	
COc1cc(F)cc(CNC(=O)c2ccc3nc(-c4cn[nH]c4)ccn23)c1 [Compound T235]	≤ 50 nM	≤ 50 nM	
O=C(NCc1ccccc1)N1CCc2cc(-c3ccc4[nH]ccc4c3)ccc21 [Compound T246]	500 to 5000 nM	500 to 5000 nM	
COc1cc(F)cc(CNC(=O)N2CCc3cc(-c4cn[nH]c4)ccc3C2)c1 [Compound T201, N-(3-fluoro-5-methoxybenzyl)-6-(1H-pyrazol-4-yl)-3,4-dihydroisoquinoline-2(1H)-carboxamide]	500 to 5000 nM	50 to 500 nM	bioavailability ([2]; 3 mg/kg Po vs Iv): 42.4%; AUC(0-t) ([2]; Iv, 3 mg/kg): 413 ng·h/mL; Cmax ([2]; Iv, 3 mg/kg): 704 ng/mL; AUC(0-t) ([2]; Po, 3 mg/kg): 175 ng·h/mL; Cmax ([2]; Po, 3 mg/kg): 95.5 ng/mL
COc1cc(F)cc(CN(Cc2ccccc2)C(=O)N2CCc3cc(-c4cn[nH]c4)ccc32)c1 [Compound T243]	500 to 5000 nM	500 to 5000 nM	
COc1cc(F)cc(CNC(=O)c2cnn3cc(-c4cn[nH]c4)ccc23)c1 [Compound T239]	≤ 50 nM	≤ 50 nM	

The next lines start with results.

IC50 (ROCK1 kinase)	IC50 (ROCK2 kinase)	Structure (SMILES)	also measured
50 to 500 nM	≤ 50 nM	COc1cccc(CNC(=O)c2ncn3cc(-c4cn[nH]c4)ccc23)c1 [Compound T361, N-(3-methoxybenzyl)-6-(1H-pyrazol-4-yl)imidazo[1,5-a]pyridine-1-carboxamide]	CC50 at 48 h [1]: > 100000 nM
≤ 50 nM	≤ 50 nM	COc1cc(F)cc(CNC(=O)c2ncn3cc(-c4cn[nH]c4F)ccc23)c1 [Compound T355, 6-(5-fluoro-1H-pyrazol-4-yl)-N-(3-fluoro-5-methoxybenzyl)imidazo[1,5-a]pyridine-1-carboxamide]	CC50 at 48 h [1]: > 100000 nM
≤ 50 nM	≤ 50 nM	COc1cccc(CNC(=O)c2ncn3cc(-c4cn[nH]c4F)ccc23)c1 [Compound T391, 6-(5-fluoro-1H-pyrazol-4-yl)-N-(3-methoxybenzyl)imidazo (1,5-a)pyridine-1-carboxamide]	CC50 at 48 h [1]: > 100000 nM
≤ 50 nM	≤ 50 nM	COc1cc(CNC(=O)N2CCc3cc(-c4cn[nH]c4F)c(F)cc32)ccc1F [Compound T384, 6-fluoro-5-(5-fluoro-1H-pyrazol-4-yl)-N-(4-fluoro-3-methoxybenzyl)indoline-1-carboxamide]	CC50 at 48 h [1]: > 100000 nM
≤ 50 nM	≤ 50 nM	CC(C)CNC(=O)COc1cc(F)cc([C@@H](CO)NC(=O)N2CCc3cc(-c4cn[nH]c4)c(F)cc32)c1 [Compound T367, (S)-6-fluoro-N-(1-(3-fluoro-5-(2-(isobutylamino)-2-oxoethoxy)phenyl)-2-hydroxyethyl)-5-(1H-pyrazol-4-yl)indoline-1-carboxamide]	
500 to 5000 nM	50 to 500 nM	O=C(NCc1cccc(OCC2CC2)c1)c1ncn2cc(-c3cn[nH]c3)ccc12 [Compound T376, N-(3-(cyclopropylmethoxy)benzyl)-6-(1H-pyrazol-4-yl)imidazo[1,5-a]pyridine-1-carboxamide]	
≤ 50 nM	≤ 50 nM	COc1cc(F)cc(CNC(=O)N2CCc3cc(-c4c[nH]nc4F)c(F)cc32)c1 [Compound T351, 6-fluoro-5-(3-fluoro-1H-pyrazol-4-yl)-N-(3-fluoro-5-methoxybenzyl)indoline-1-carboxamide]	
≤ 50 nM	≤ 50 nM	O=C(NC1CCCC1)c1cc(F)cc(C(CO)NC(=O)N2CCc3cc(-c4cn[nH]c4)c(F)cc32)c1 (stereo not shown) [Compound T389, N-(1-(3-(cyclopentylcarbamoyl)-5-fluorophenyl)-2-hydroxyethyl)-6-fluoro-5-(1H-pyrazol-4-yl)indoline-1-carboxamide]	
≤ 50 nM	≤ 50 nM	CC(C)NC(=O)COc1cc(F)cc([C@@H](CO)NC(=O)N2CCc3cc(-c4cn[nH]c4)c(F)cc32)c1 [Compound T358, (5)-6-fluoro-N-(1-(3-fluoro-5-(2-(isopropylamino)-2-oxoethoxy)phenyl)-2-hydroxyethyl)-5-(1H-pyrazol-4-yl)indoline-1-carboxamide]	
500 to 5000 nM	500 to 5000 nM	N#Cc1cc(F)cc(CNC(=O)N2CCc3cc(-c4c[nH]nc4N)c(F)cc32)c1 [Compound T348, 5-(3-amino-1H-pyrazol-4-yl)-N-(3-cyano-5-fluorobenzyl)-6-fluoroindoline-1-carboxamide]	
≤ 50 nM	≤ 50 nM	COc1cc(F)cc(CNC(=O)N2CCc3c2ccc(-c2cn[nH]c2)c3F)c1 [Compound T372, 4-fluoro-N-(3-fluoro-5-methoxybenzyl)-5-(1H-pyrazol-4-yl)indoline-1-carboxamide]	
500 to 5000 nM	50 to 500 nM	COc1cc(F)cc(CNC(=O)N2CCc3cc(-c4cn[nH]c4)c(C#N)cc32)c1 [Compound T353, 6-cyano-N-(3-fluoro-5-methoxybenzyl)-5-(1H-pyrazol-4-yl)indoline-1-carboxamide]	
